Like-named read-outs stand apart in the source and are kept apart here.
Assays:
opioid δ receptor = opioid δ receptor (Rattus norvegicus (Rat), UniProt P33533); test: Binding assay of opioid δ receptor ([3H]-DADLE, rat cerebrum membrane)
Method: (§1) 1) Method of Preparing Membrane Specimen for Binding Assay
(§2) A rat cerebrum (Slc: SD) which had been stored at −80° C. was used. To a cerebrum which had been weighed was added a 20-fold amount of ice-cooled 10 mM Tris-HCl buffer (pH 7.0), and the mixture was homogenized (25000 rpm, 30 seconds) with Histocolon (NITI-ON), and centrifuged at 36600×g for 20 minutes. To the resulting pellet was added 15 ml of the same buffer, and the mixture was treated with Histocolon similarly, and centrifuged. This washing work was performed two times. After centrifugation, to the resulting pellet was added 15 mL of a 50 mM Tris-HCl buffer (pH 7.4), and this was treated with Histocolon, and finally resuspended in a 10-fold amount of the same buffer, which was used as a crude membrane fraction (Life Sci. 48, 111-116, 1991). The prepared membrane specimen was frozen and stored at −80° C., and at an assay, the specimen was rapidly thawed, and diluted to about 900 μg/mL with a 50 mM Tris-HCl buffer (pH 7.4) after the centrifugation and Histocolon treatment, and was used in an experiment. For measuring a protein concentration of the membrane specimen, Micro BCA Protein Assay Kit (PIERCE) was used.
2) Method of δ Receptor Binding Assay and Data Analysis
Into a tube was placed 480 μl of a rat cerebrum membrane fraction to which 100 mM choline chloride, 3 mM MnCl2 and 100 nM DAMGO had been added, and this was incubated at 25° C. for 2 hours. […] After washing, the filter was transferred to a mini vial for liquid scintillation counter, 5 mL of a scintillator (Cleasol I) was added, this was allowed to stand overnight, and the radioactivity was measured for 3 minutes with a liquid scintillation counter Tri-Carb 2200CA (PACKARD).

opioid μ receptor = opioid μ receptor (Rattus norvegicus (Rat), UniProt P33535); test: Binding assay to opioid μ receptor ([3H]-DAMGO, rat cerebrum membrane)
Method: as §1
as §2, with “(pH 7.0), the mixture” for “(pH 7.0), and the mixture”, “(pH 7.4), this was” for “(pH 7.4), and this was”, “Histocolon, and this was finally resuspended” for “Histocolon, and finally resuspended”, “and at a test, the specimen” for “and at an assay, the specimen”
2) Method of μ Receptor Binding Assay and Data Analysis
After washing, the filter was transferred to a mini vial for liquid scintillation counter, 5 mL of a scintillator (Cleasol I) was added, and this was allowed to stand overnight, and the radioactivity was measured for 3 minutes with a liquid scintillation counter Tri-Carb 2200CA (PACKARD).

[1] = system: carbon powder transport of inhibitory activity by morphine; test: Mouse carbon powder transport assay (antagonism of morphine-inhibited small intestine transport); type: in vivo; conditions: sc, 1 h, test compound 3 mg/kg subcutaneously, 15 minutes before morphine 3 mg/kg
Method: 1) Preparation of Test Diet (Carbon Powder)
Using a 10 w/v % arabic gum aqueous solution, a 5 w/v % active carbon solution was prepared, which was used as a test diet.
A ddY line male mouse (5 to 6 weeks old) was used. The mouse was fasted from about 20 or more hours before assay initiation, and water was given ad lib.
The test compound was dissolved in a solvent (DMAA/Solutol/5% meglumine=15/15/70).
Morphine hydrochloride was dissolved in a physiological saline. The test compound, the above solvent and morphine were all administered at a liquid amount of 10 mL/kg.
The test compound 3 mg/kg (test compound administration group) or the solvent (solvent administration group) were subcutaneously administered and, after 15 minutes, amount of 3 mg/kg of morphine was administered to all groups. As a control group, the solvent was subcutaneously administered and, after 15 minutes, a physiological saline was administered.
The test diet 10 mL/kg was orally administered at 15 minutes after administration of morphine. At thirty minutes after administration of the test diet (60 minutes after administration of the test substance), all mice were isolated from esophagus to an ileocecal part near a stomach cardia part. A distance from pyloric part of the stomach to an ileocecal part (full length of small intestine) and a distance until a carbon powder reaching front part (carbon powder movement distance) were measured. The antagonistic activity on the carbon powder transport of inhibitory activity by morphine was calculated as MPE (%) using the following equation. Transport rate (%)=(carbon powder movement distance)/full length of small intestine (cm))×100 M.P.E. (%)={(small intestine transport rate (%) of each individual of test compound administration group−average small intestine transport rate (%) of solvent administration group)/(average small intestine transport rate (%) of control group−average small intestine transport rate (%) of solvent administration group)}×100

[2] = [3H]-DAMGO, rat cerebrum membrane fraction, read-out: Ki
[3] = [3H]-DADLE, rat cerebrum membrane fraction, read-out: Ki

| SMILES | Ki (opioid δ receptor) | Ki (opioid μ receptor) | percent antagonism of morphine-inhibited transport (M.P.E.) at 3 mg/kg [1] | Ki (opioid μ receptor; [2]) | other results |
| --- | --- | --- | --- | --- | --- |
| CN(C)c1ccc(NC(=O)C2=C(O)[C@@H]3Oc4c(O)ccc5c4[C@@]34CCN(CC3CC3)[C@H](C5)[C@]4(O)C2)cc1 [Compound I-39] | 41.8 nM | 0.33 nM | 52% | – | – |
| Cc1cc(NC(=O)C2=C(O)[C@@H]3Oc4c(O)ccc5c4[C@@]34CCN(CC3CC3)[C@H](C5)[C@]4(O)C2)on1 [Compound I-138] | – | – | 55.8% | 15.5 nM | – |
| Cc1ccc2nc(=O)c3c(n2c1)[C@@H]1Oc2c(O)ccc4c2[C@@]12CCN(CC1CC1)[C@H](C4)[C@]2(O)C3 [Compound I-267] | – | – | 60% | 0.84 nM | Ki (opioid δ receptor; [3]): 41.5 nM |
| O=C(Nc1cccnc1)C1=C(O)[C@@H]2Oc3c(O)ccc4c3[C@@]23CCN(CC2CC2)[C@H](C4)[C@]3(O)C1 [Compound I-92] | 5.23 nM | – | – | – | – |
| COC(=O)C1(NC(=O)C2=C(O)[C@@H]3Oc4c(O)ccc5c4[C@@]34CCN(CC3CC3)[C@H](C5)[C@]4(O)C2)CCCC1 [Compound I-133] | – | – | 107% | 4.99 nM | Ki (opioid δ receptor; [3]): 9.85 nM |
| O=C(C1=C(O)[C@@H]2Oc3c(O)ccc4c3[C@@]23CCN(CC2CC2)[C@H](C4)[C@]3(O)C1)N1CCCC1 [Compound I-7] | 7.4 nM | – | – | – | – |
| CC(C)(NC(=O)C1=C(O)[C@@H]2Oc3c(O)ccc4c3[C@@]23CCN(CC2CC2)[C@H](C4)[C@]3(O)C1)c1nc(-c2ccccc2)no1 [Compound I-284] | – | 1.13 nM | 79.6% | – | Ki (opioid δ receptor; [3]): 0.91 nM |
| Cc1cc(=O)[nH]c2cc(NC(=O)C3=C(O)[C@@H]4Oc5c(O)ccc6c5[C@@]45CCN(CC4CC4)[C@H](C6)[C@]5(O)C3)ccc12 [Compound I-240] | 11.5 nM | – | 36.3% | 6.85 nM | – |
| COC(=O)C(C)(C)NC(=O)C1=C(O)[C@@H]2Oc3c(O)ccc4c3[C@@]23CCN(CC2CC2)[C@H](C4)[C@]3(O)C1 [Compound I-49] | – | 16.5 nM | 80% | – | Ki (opioid δ receptor; [3]): 3.99 nM |
| CC(C)NC(=O)C1=C(O)[C@@H]2Oc3c(O)ccc4c3[C@@]23CCN(CC2CC2)[C@H](C4)[C@]3(O)C1 [Compound I-4, 7-Isopropylaminocarbonylnaltrexone] | 7.38 nM | 5.18 nM | – | – | – |
| COCC(C)(COC)NC(=O)C1=C(O)[C@@H]2Oc3c(O)ccc4c3[C@@]23CCN(CC2CC2)[C@H](C4)[C@]3(O)C1 [Compound I-288] | 5.36 nM | 14.4 nM | 101% | – | – |
| CC(C)NC(=O)C1=C(NS(=O)(=O)c2ccc(F)cc2)[C@@H]2Oc3c(O)ccc4c3[C@@]23CCN(CC2CC2)[C@H](C4)[C@]3(O)C1 [Compound I-289] | – | – | 67% | 12.9 nM | Ki (opioid δ receptor; [3]): 0.47 nM |
| COCC1(NC(=O)C2=C(O)[C@@H]3Oc4c(O)ccc5c4[C@@]34CCN(CC3CC3)[C@H](C5)[C@]4(O)C2)CC1 [Compound I-283] | 3.73 nM | 20.1 nM | 63.7% | – | – |
| O=C(NCCOc1ccccc1)C1=C(O)[C@@H]2Oc3c(O)ccc4c3[C@@]23CCN(CC2CC2)[C@H](C4)[C@]3(O)C1 [Compound I-30] | 5.34 nM | – | – | – | – |
| O=C(NS(=O)(=O)c1cccc(Cl)c1)C1=C(O)[C@@H]2Oc3c(O)ccc4c3[C@@]23CCN(CC2CC2)[C@H](C4)[C@]3(O)C1 [Compound I-122] | – | – | 31.5% | 2.7 nM | – |
| COc1ccc(NC(=O)C2=C(O)[C@@H]3Oc4c(O)ccc5c4[C@@]34CCN(CC3CC3)[C@H](C5)[C@]4(O)C2)cn1 [Compound I-118] | – | – | 55.6% | – | – |
| COCC(C)(C)NC(=O)C1=C(O)[C@@H]2Oc3c(O)ccc4c3[C@@]23CCN(CC2CC2)[C@H](C4)[C@]3(O)C1 [Compound I-286] | 2.46 nM | 14 nM | 70.6% | – | – |
| O=C(Nc1ccccc1)C1=C(O)[C@@H]2Oc3c(O)ccc4c3[C@@]23CCN(CC2CC2)[C@H](C4)[C@]3(O)C1 [Compound I-10] | 19.9 nM | 4.05 nM | – | – | – |
| Cc1noc(C(C)(C)NC(=O)C2=C(O)[C@@H]3Oc4c(O)ccc5c4[C@@]34CCN(CC3CC3)[C@H](C5)[C@]4(O)C2)n1 [Compound I-285] | 5.77 nM | – | 82.5% | 7.29 nM | – |
| CCCCNC(=O)C1=C(O)[C@@H]2Oc3c(O)ccc4c3[C@@]23CCN(CC2CC2)[C@H](C4)[C@]3(O)C1 [Compound I-3] | 8.76 nM | – | – | – | – |
| COc1cc(NC(=O)C2=C(O)[C@@H]3Oc4c(O)ccc5c4[C@@]34CCN(CC3CC3)[C@H](C5)[C@]4(O)C2)ncn1 [Compound I-243] | 5.2 nM | 5.28 nM | 52.6% | – | – |
| COC(=O)C1(NC(=O)C2=C(O)[C@@H]3Oc4c(O)ccc5c4[C@@]34CCN(CC3CC3)[C@H](C5)[C@]4(O)C2)CCC1 [Compound I-199] | 12.8 nM | 9.45 nM | 62.8% | – | – |
| O=C(Nc1cccc(C(=O)O)c1)C1=C(O)[C@@H]2Oc3c(O)ccc4c3[C@@]23CCN(CC2CC2)[C@H](C4)[C@]3(O)C1 [Compound I-188] | 3.01 nM | 17.3 nM | 74.6% | – | – |
| COC(=O)C1(NC(=O)C2=C(O)[C@@H]3Oc4c(O)ccc5c4[C@@]34CCN(CC3CC3)[C@H](C5)[C@]4(O)C2)CC1 [Compound I-135] | – | – | 59.7% | – | Ki (opioid δ receptor; read-out: Ki): 9.76 nM; Ki (opioid μ receptor; read-out: Ki): 1.58 nM |
| CC(C)NC(=O)C1=C(NS(=O)(=O)c2ccc(Cl)cc2)[C@@H]2Oc3c(O)ccc4c3[C@@]23CCN(CC2CC2)[C@H](C4)[C@]3(O)C1 [Compound I-244] | – | – | 71.6% | – | – |
| O=C(N[C@H]1CCOC1=O)C1=C(O)[C@@H]2Oc3c(O)ccc4c3[C@@]23CCN(CC2CC2)[C@H](C4)[C@]3(O)C1 [Compound I-145] | – | – | 60.2% | 28.1 nM | Ki (opioid δ receptor; [3]): 13.9 nM |
| CN(Cc1ccccc1)C(=O)C1=C(O)[C@@H]2Oc3c(O)ccc4c3[C@@]23CCN(CC2CC2)[C@H](C4)[C@]3(O)C1 [Compound I-13] | 5.02 nM | – | – | – | – |
| O=C(NS(=O)(=O)c1ccc(F)cc1)C1=C(O)[C@@H]2Oc3c(O)ccc4c3[C@@]23CCN(CC2CC2)[C@H](C4)[C@]3(O)C1 [Compound I-124] | – | – | 46.6% | – | Ki (opioid μ receptor; read-out: Ki): 3.9 nM |
| COc1ccc(S(=O)(=O)NC(=O)C2=C(O)[C@@H]3Oc4c(O)ccc5c4[C@@]34CCN(CC3CC3)[C@H](C5)[C@]4(O)C2)cc1 [Compound I-123] | – | – | 44.1% | 1.68 nM | – |
